Key:
[1] = target: PI3Kα (Homo sapiens (Human), UniProt P42336); assay: Enzymatic activity of PI3K isoforms, TR-FRET assay (PIP3 formation); format: biochemical; conditions: bound given in uM
Method: (§1) Enzymatic activity of the class I PI3K isoforms was measured using a time-resolved fluorescence resonance energy transfer (TR-FRET) assay that monitors formation of the product 3,4,5-inositol triphosphate molecule (PIP3), as it competes with fluorescently labeled PIP3 for binding to the GRP-1 pleckstrin homology domain protein. An increase in […] product results in a decrease in TR-FRET signal as the labeled fluorophore is displaced from the GRP-1 protein binding site.
(§2) Class I PI3K isoforms were expressed and purified as heterodimeric recombinant proteins. All assay reagents and buffers for the TR-FRET assay were purchased from Millipore. […] After an assay reaction time of 30 minutes at 25° C., reactions were terminated with a final concentration of 10 mM EDTA, 10 nM labeled-PIP3, and 35 nM Europium labeled GRP-1 detector protein before reading TR-FRET on an Envision plate reader (Ex: 340 nm; Em: 615/665 nm; 100 μs delay and 500 μs read window).
(§3) IC50 are reported in units of nM. These assays generally produced results within 3-fold of the reported mean.

[2] = target: PI3Kδ (Homo sapiens (Human), UniProt O00329); assay: as above; format: biochemical; conditions: bound given in nM
Sequence of PI3Kδ (O00329 whole entry): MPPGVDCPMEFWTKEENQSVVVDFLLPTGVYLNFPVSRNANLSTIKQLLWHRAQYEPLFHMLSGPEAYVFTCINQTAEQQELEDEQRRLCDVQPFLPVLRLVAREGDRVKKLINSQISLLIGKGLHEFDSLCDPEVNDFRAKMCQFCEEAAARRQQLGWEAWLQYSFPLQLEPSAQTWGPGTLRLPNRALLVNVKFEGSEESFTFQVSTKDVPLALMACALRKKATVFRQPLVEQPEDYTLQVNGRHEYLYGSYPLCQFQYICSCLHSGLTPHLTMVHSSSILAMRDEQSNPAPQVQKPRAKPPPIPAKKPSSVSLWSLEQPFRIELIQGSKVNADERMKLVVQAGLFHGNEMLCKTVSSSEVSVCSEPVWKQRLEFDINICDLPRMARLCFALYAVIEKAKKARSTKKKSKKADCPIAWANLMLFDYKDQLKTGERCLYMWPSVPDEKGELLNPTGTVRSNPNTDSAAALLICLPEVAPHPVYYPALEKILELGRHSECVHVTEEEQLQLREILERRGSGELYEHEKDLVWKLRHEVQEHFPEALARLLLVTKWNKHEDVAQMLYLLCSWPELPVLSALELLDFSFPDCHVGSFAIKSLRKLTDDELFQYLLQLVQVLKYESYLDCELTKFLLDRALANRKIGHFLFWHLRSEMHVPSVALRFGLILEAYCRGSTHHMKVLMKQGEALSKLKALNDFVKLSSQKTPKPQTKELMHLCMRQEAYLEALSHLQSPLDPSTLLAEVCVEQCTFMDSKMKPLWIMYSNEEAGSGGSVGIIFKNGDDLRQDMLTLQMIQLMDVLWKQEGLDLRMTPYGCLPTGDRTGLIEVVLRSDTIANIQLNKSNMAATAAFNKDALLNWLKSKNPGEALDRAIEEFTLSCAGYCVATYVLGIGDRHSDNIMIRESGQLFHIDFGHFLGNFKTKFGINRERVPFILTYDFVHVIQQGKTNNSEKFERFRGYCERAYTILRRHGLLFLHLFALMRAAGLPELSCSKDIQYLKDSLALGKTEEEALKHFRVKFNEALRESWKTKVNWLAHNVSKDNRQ
Sequence of PI3Kδ (P27986 whole entry partner): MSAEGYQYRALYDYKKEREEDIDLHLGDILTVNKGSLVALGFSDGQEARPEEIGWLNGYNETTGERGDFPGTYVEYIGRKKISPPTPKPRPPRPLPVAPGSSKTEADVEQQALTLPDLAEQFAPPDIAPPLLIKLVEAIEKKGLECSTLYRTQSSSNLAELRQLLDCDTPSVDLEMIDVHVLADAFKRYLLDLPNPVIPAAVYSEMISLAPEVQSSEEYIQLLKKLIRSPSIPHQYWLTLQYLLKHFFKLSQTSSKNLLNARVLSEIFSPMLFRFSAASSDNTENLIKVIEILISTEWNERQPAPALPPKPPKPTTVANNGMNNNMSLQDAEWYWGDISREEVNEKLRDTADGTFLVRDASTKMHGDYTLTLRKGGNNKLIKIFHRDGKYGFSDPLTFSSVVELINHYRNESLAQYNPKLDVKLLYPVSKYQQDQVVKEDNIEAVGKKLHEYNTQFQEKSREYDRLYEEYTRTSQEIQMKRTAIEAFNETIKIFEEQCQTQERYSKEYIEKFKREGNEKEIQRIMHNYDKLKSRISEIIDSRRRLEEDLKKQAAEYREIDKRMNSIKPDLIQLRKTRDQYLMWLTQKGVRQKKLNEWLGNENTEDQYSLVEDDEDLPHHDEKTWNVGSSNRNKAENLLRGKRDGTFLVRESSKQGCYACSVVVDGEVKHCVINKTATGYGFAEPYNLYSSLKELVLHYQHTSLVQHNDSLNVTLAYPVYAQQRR
Method: as §1, §2, §3

Sequence of PI3Kα (P42336 whole entry, the tested form may be a part, canonical isoform): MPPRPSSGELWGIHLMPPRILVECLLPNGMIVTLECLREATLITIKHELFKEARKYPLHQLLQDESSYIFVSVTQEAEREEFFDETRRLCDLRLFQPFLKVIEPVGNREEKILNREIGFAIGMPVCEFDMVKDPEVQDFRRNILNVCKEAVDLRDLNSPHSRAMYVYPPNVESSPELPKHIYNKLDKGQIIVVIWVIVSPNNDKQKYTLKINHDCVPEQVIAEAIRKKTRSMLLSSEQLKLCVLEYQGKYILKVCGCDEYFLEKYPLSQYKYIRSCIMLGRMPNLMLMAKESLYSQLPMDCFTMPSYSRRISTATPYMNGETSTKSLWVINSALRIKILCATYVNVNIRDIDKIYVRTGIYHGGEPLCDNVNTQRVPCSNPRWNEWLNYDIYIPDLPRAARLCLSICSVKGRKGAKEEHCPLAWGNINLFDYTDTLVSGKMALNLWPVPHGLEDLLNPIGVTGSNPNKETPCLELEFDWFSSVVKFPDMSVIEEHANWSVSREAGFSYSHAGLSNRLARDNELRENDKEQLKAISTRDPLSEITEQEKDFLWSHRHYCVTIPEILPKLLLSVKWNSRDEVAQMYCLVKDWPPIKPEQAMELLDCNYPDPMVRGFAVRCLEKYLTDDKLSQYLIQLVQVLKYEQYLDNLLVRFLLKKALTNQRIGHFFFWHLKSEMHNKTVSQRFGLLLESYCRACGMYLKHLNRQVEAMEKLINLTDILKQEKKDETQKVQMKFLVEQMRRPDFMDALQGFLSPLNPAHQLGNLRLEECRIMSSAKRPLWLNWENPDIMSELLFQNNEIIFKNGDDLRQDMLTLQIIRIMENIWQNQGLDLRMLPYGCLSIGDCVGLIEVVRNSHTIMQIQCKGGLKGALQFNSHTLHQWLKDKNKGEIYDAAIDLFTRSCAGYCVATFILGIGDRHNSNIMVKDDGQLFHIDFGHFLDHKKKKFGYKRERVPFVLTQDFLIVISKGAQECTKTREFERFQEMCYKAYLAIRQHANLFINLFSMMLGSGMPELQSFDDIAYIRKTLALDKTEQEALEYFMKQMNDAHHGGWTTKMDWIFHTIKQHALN
Sequence of PI3Kα (P27986 whole entry partner, the tested form may be a part, canonical isoform): as the sequence (P27986 whole entry partner) above

Structure (SMILES): C[C@H](Nc1ncnc(N)c1C#Cc1ccc(F)cn1)c1nc2c(F)ccc(Cl)c2c(=O)n1-c1ccccc1 [Compound 6a, (S)-2-(1-(6-amino-5-((5-fluoropyridin-2-yl)ethynyl)pyrimidin-4-ylamino)ethyl)-5-chloro-8-fluoro-3-phenylquinazolin-4(3H)-one]
- IC50 [1]: > 1 µM
- IC50 [2]: < 100 nM

Structure (SMILES): COc1ccc(C#Cc2c(N)ncnc2N[C@@H](C)c2nc3c(Cl)ccc(Cl)c3c(=O)n2-c2ccccc2)nc1 [Compound 10a, (S)-2-(1-(6-amino-5-((5-methoxypyridin-2-yl)ethynyl)pyrimidin-4-ylamino)ethyl)-5,8-dichloro-3-phenylquinazolin-4(3H)-one]
- IC50 [1]: > 1 µM
- IC50 [2]: < 100 nM

Structure (SMILES): COc1ccc(C#Cc2c(N)ncnc2N[C@@H](C)c2nc3c(F)cccc3c(=O)n2-c2ccccc2)nc1 [Compound 12a, (S)-2-(1-(6-amino-5-((5-methoxypyridin-2-yl)ethynyl)pyrimidin-4-ylamino)ethyl)-8-fluoro-3-phenylquinazolin-4(3H)-one]
- IC50 [1]: > 1 µM
- IC50 [2]: < 100 nM

Structure (SMILES): C[C@H](Nc1ncnc(N)c1C#Cc1cnc(N)nc1)c1nc2cccc(Cl)c2c(=O)n1-c1cc(F)cc(F)c1 [Compound 32a, (S)-2-(1-(6-amino-5-((2-aminopyrimidin-5-yl)ethynyl)pyrimidin-4-ylamino)ethyl)-5-chloro-3-(3,5-difluorophenyl)quinazolin-4(3H)-one]
- IC50 [2]: < 100 nM

Structure (SMILES): C[C@H](Nc1ncnc(N)c1C#Cc1ccc(N)cn1)c1nc2cccc(Cl)c2c(=O)n1-c1cc(F)cc(F)c1 [Compound 34a, (S)-2-(1-(6-amino-5-((5-aminopyridin-2-yl)ethynyl)pyrimidin-4-ylamino)ethyl)-5-chloro-3-(3,5-difluorophenyl)quinazolin-4(3H)-one]
- IC50 [1]: > 1 µM
- IC50 [2]: < 100 nM

Structure (SMILES): Nc1ncnc(N2CCC[C@H]2c2nc3cccc(Cl)c3c(=O)n2-c2ccccc2)c1C#Cc1ccccn1 [Compound 37a, (S)-2-(1-(6-amino-5-(pyridin-2-ylethynyl)pyrimidin-4-yl)pyrrolidin-2-yl)-5-chloro-3-phenylquinazolin-4(3H)-one]
- IC50 [1]: > 1 µM
- IC50 [2]: < 100 nM

Structure (SMILES): CCNS(=O)(=O)c1cccc(-n2c([C@H](C)Nc3ncnc(N)c3C#Cc3ccccn3)nc3cccc(Cl)c3c2=O)c1 [Compound 39a, (S)-3-(2-(1-(6-amino-5-(pyridin-2-ylethynyl)pyrimidin-4-ylamino)ethyl)-5-chloro-4-oxoquinazolin-3(4H)-yl)-N-ethylbenzenesulfonamide]
- IC50 [2]: < 100 nM

Structure (SMILES): C[C@H](Nc1ncnc(N)c1C#Cc1ccccn1)c1nc2cccc(Cl)c2c(=O)n1-c1cccc(S(N)(=O)=O)c1 [Compound 40a, (S)-3-(2-(1-(6-amino-5-(pyridin-2-ylethynyl)pyrimidin-4-ylamino)ethyl)-5-chloro-4-oxoquinazolin-3(4H)-yl)benzenesulfonamide]
- IC50 [2]: < 100 nM

Structure (SMILES): COc1cc(F)cc(C#Cc2c(N)ncnc2N[C@@H](C)c2nc3cccc(Cl)c3c(=O)n2-c2ccccc2)c1 [Compound 47a, (S)-2-(1-(6-amino-5-((3-fluoro-5-methoxyphenyl)ethynyl)pyrimidin-4-ylamino)ethyl)-5-chloro-3-phenylquinazolin-4(3H)-one]
- IC50 [1]: > 1 µM
- IC50 [2]: < 100 nM

Structure (SMILES): C[C@H](Nc1ncnc(N)c1C#Cc1ccc(F)cn1)c1nc2cccc(Cl)c2c(=O)n1-c1ccccc1 [Compound 48a, (S)-2-(1-(6-amino-5-((5-fluoropyridin-2-yl)ethynyl)pyrimidin-4-ylamino)ethyl)-5-chloro-3-phenylquinazolin-4(3H)-one]
- IC50 [1]: > 1 µM
- IC50 [2]: < 100 nM

Structure (SMILES): Cc1cccc2nc([C@H](C)Nc3ncnc(N)c3C#Cc3ccc(F)cn3)n(-c3ccccc3)c(=O)c12 [Compound 54a, (S)-2-(1-((6-amino-5-((5-fluoropyridin-2-yl)ethynyl)pyrimidin-4-yl)amino)ethyl)-5-methyl-3-phenylquinazolin-4(3H)-one]
- IC50 [1]: > 1 µM
- IC50 [2]: < 100 nM

Structure (SMILES): Cc1ccc(F)c2nc([C@H](C)Nc3ncnc(N)c3C#Cc3ccc(F)cn3)n(-c3ccccc3)c(=O)c12 [Compound 62a, (S)-2-(1-((6-amino-5-((5-fluoropyridin-2-yl)ethynyl)pyrimidin-4-yl)amino)ethyl)-8-fluoro-5-methyl-3-phenylquinazolin-4(3H)-one]
- IC50 [1]: > 1 µM
- IC50 [2]: < 100 nM

Structure (SMILES): C[C@H](Nc1ncnc(N)c1C#Cc1cnccn1)c1nc2cccc(C(F)F)c2c(=O)n1-c1ccccc1 [Compound 76a, (S)-2-(1-((6-amino-5-(pyrazin-2-ylethynyl)pyrimidin-4-yl)amino)ethyl)-5-(difluoromethyl)-3-phenylquinazolin-4(3H)-one]
- IC50 [1]: > 1 µM
- IC50 [2]: < 100 nM

Structure (SMILES): C[C@H](Nc1ncnc(N)c1C#Cc1cnccn1)c1nc2cccc(Cl)c2c(=O)n1-c1cccc(Cl)c1 [Compound 89a, (S)-2-(1-((6-amino-5-(pyrazin-2-ylethynyl)pyrimidin-4-yl)amino)ethyl)-5-chloro-3-(3-chlorophenyl)quinazolin-4(3H)-one]
- IC50 [1]: > 1 µM
- IC50 [2]: < 100 nM

Structure (SMILES): C[C@H](Nc1ncnc(N)c1C#Cc1ncccn1)c1nc2cccc(Cl)c2c(=O)n1-c1ccccc1 [Compound 102a, (S)-2-(1-((6-amino-5-(pyrimidin-2-ylethynyl)pyrimidin-4-yl)amino)ethyl)-5-chloro-3-phenylquinazolin-4(3H)-one]
- IC50 [1]: > 1 µM
- IC50 [2]: < 100 nM

Structure (SMILES): Cc1cccc2nc([C@H](C)Nc3ncnc(N)c3C#Cc3ncccn3)n(-c3ccccc3)c(=O)c12 [Compound 104a, (S)-2-(1-((6-amino-5-(pyrimidin-2-ylethynyl)pyrimidin-4-yl)amino)ethyl)-5-methyl-3-phenylquinazolin-4(3H)-one]
- IC50 [1]: > 1 µM
- IC50 [2]: < 100 nM

Structure (SMILES): C[C@H](Nc1ncnc(N)c1C#Cc1ccccc1)c1nc2cccc(F)c2c(=O)n1-c1cccc(F)c1 [Compound 111a, (S)-2-(1-((6-amino-5-(phenylethynyl)pyrimidin-4-yl)amino)ethyl)-5-fluoro-3-(3-fluorophenyl)quinazolin-4(3H)-one]
- IC50 [1]: > 1 µM
- IC50 [2]: < 100 nM

Structure (SMILES): C[C@H](Nc1ncnc(N)c1C#Cc1ccccc1)c1nc2cccc(C#N)c2c(=O)n1-c1ccccc1 [Compound 114a, (S)-2-(1-((6-amino-5-(phenylethynyl)pyrimidin-4-yl)amino)ethyl)-4-oxo-3-phenyl-3,4-dihydroquinazoline-5-carbonitrile]
- IC50 [1]: > 1 µM
- IC50 [2]: < 100 nM

Structure (SMILES): C[C@H](Nc1ncnc(N)c1C#Cc1cnccn1)c1nc2cccc(Cl)c2c(=O)n1-c1cccc(CNS(C)(=O)=O)c1 [Compound 123a, (S)—N-(3-(2-(1-((6-amino-5-(pyrazin-2-ylethynyl)pyrimidin-4-yl)amino)ethyl)-5-chloro-4-oxoquinazolin-3(4H)-yl)benzyl)methanesulfonamide]
- IC50 [1]: > 1 µM
- IC50 [2]: < 100 nM

Structure (SMILES): C[C@H](Nc1ncnc(N)c1C#Cc1cc(C(F)(F)F)ccn1)c1nc2cccc(Cl)c2c(=O)n1-c1ccccc1 [Compound 148a, (S)-2-(1-((6-amino-5-((4-(trifluoromethyl)pyridin-2-yl)ethynyl)pyrimidin-4-yl)amino)ethyl)-5-chloro-3-phenylquinazolin-4(3H)-one]
- IC50 [1]: > 1 µM
- IC50 [2]: < 100 nM
